Each structure is given as a SMILES string.

As usually defined, the pKb is the Kb on a negative log10 scale, so that one unit is a factor of ten.

The target of the assay is 5-hydroxytryptamine receptor 7 (Homo sapiens) (UniProt P34969). The assay can be described thus: Binding affinity to human 5HT7 receptor expressed in CHO cells. It is filed as cell-based.
Chain of 5-hydroxytryptamine receptor 7 (Homo sapiens) (P34969 whole entry): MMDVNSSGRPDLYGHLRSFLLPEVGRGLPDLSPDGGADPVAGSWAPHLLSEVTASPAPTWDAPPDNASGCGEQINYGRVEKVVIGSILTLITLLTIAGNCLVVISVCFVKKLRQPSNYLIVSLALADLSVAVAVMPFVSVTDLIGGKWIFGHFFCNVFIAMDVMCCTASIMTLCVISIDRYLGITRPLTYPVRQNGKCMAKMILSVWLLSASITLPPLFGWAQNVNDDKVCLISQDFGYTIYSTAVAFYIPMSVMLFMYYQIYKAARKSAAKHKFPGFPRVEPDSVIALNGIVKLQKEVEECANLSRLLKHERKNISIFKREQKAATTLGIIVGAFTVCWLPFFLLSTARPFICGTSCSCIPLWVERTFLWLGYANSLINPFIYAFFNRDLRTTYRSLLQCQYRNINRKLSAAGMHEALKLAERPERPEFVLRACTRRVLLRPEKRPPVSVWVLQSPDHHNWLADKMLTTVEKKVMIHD

The molecule `O=C(OC1CCN(CC[C@H]2CCCN2S(=O)(=O)c2ccccc2)CC1)c1ccc(F)cc1` had a pKb of 7.1. `COc1ccccc1N1CCN(CCCNS(=O)(=O)c2ccc(F)cc2)CC1` yielded a pKb of 7.26.

These data come from ChEMBL document CHEMBL1155537, “Looking for a 5-HT7 radiotracer for positron emission tomography” (Bioorg Med Chem Lett, 2010).
